Where two headings read alike, the source gives them in different places.
Legend:
[1] = Veliparib quantified by LC-MS in plasma, TNBC xenograft tumor, muscle and liver of mice; format: in vivo, beige SCID mice; details: for Median conc. (RSE %) / concentration at 3 h: LC-MS; for concentration at 3 h: beige SCID (Fox Chase), mouse, read-out: Median conc. (RSE %)
Protocol: Forty-one beige DF mice with severe combined immunodeficiency (SCID) (Fox Chase, strain R035948:1) were implanted with 10^6 MDA-MB-231 (N = 10), HCC70 N = 21) or MDA-MB-436 (N = 10) TNBC cells obtained from the ATCC bilaterally in the mammary fat pads (Fig. 1). When the TNBC xenograft tissue size exceeded 200 mm^3, the mice were randomized across the treatment cohorts. Animals were randomized into veliparib low dose (20 mg/kg), veliparib high dose (60 mg/kg) or placebo + C, introduced via oral gavage three times daily for 3 days (all but the two DCE-MRI study mice). Carboplatin at 60 mg/kg was administered intravenously on day 1 and day 2. Blood samples (50 μL) were obtained at day 2 in ethylenediaminetetraacetic acid (EDTA) containing vials at 0.6, 3 and 5 h after veliparib and carboplatin dose in 15 mice (all xenograft models, Fig. 1). The procedures were approved by the Institutional Animal (IACUC AN092211-01D).
(§1) Thirty-nine mice were euthanized approximately 3 h after the last dose of veliparib and 24 h after the last dose of carboplatin; two mice used in the DCE-MRI pilot were euthanized 1.5 h after single-dose administration of veliparib and carboplatin (Fig. 1). Bilateral xenograft tumors and liver and muscle (quadriceps) tissues were harvested. Tissues were cut into three pieces and either embedded in optimum cutting temperature (OCT) formulation or were directly snap frozen in liquid-nitrogen-cooled isopentane and stored at − 80 °C until analysis. […] A separate fresh-frozen portion of each tissue per animal was ground for quantification of veliparib and carboplatin by LC-MS. Method development and details of the techniques are described in Additional file 1a-c. […]
c) Technical aspects of the LC-MS method development.
Plasma samples (50 μl ) were prepared using protein precipitation with acetonitrile. Small tumor samples (average 44 mg) were pulverized using Biopulverizer R (Biospec Bartlesville, OK, USA). Volume and weight of the pulverized tumor was determined. Veliparib was then extracted using cell lysis buffer (Cell Signaling Technology, Danvers, MA,USA), complemented with Halt Protease & Phosphatase (ThermoScientific, Atlanta, GA,USA). Protein precipitation of the tissue lysates was performed with acetonitrile. Oxaliplatin (Tzchem, Framingham, MA,USA) and iniparib (Sigma-Aldrich, Milwaukee, USA) were used as internal standards.
Veliparib/carboplatin quantification:
Carboplatin and veliparib were measured using LC-MS (Applied Biosystem Systems 3200 LC-MS/MS, Toronto, Canada), with electrospray ionization (ESI), using a Xterra® MS C18 3.5 µm column (Waters, Milford, MA, USA). The mobile phase contained 50:50 methanol and water with 0.1%, formic acid.
Concentration of veliparib in tissues were calculated in mg/g and transferred to mg/L by estimating the average density of the livers, muscles and tumors.
Figure S9: Example graph of mass spectrum of veliparib and carboplatin and the internal standards in plasma […]
Method development/validation
The limit of quantification was 15 ng/ml for veliparib and 156 ng/ml for carboplatin. The calibration curves […]
Figure S10) Repetition quantification from two tissue sections of the same animal to show consistence of results when repeating veliparib extraction (performed by LCMS).

[2] = Veliparib spatial distribution by MALDI-MSI in TNBC xenograft tumor and muscle sections; format: in vivo, beige SCID mice
Protocol: as §1, with “LC-MS.” for “LC-MS. Method development and details of the techniques are described in Additional file 1a-c.”
Heterogeneity of drug distribution of veliparib in the tissues evaluated by MALDI-MSI was assessed by comparing the relative standard deviation in the whole tissue of muscle and tumor cells, and by comparing the mean pixel intensity of each immunohistochemically (IHC)-defined region of interest capturing the whole tumor region, and regions of cellularity/necrosis using one-way ANOVA. […]
By spiking different concentrations of veliparib on placebo treated mouse TNBC xenograft tissues, a rough estimate of the detection range of veliparib was determined to be 100 fmol-100 pmol absolute drug amount, Figure S2 left) with saturation of the signal occurring above 1 nmol/ μL. […]

[3] = test system: HCC70; details: ref [23]; cited from earlier work
[4] = parameters: method as in PMID 19526240; details: ref [32]; cited from earlier work

C[C@]1(c2nc3c(C(N)=O)cccc3[nH]2)CCCN1 [veliparib]
Xenograft tissues below the limit of detection by LC-MS ([1]; 20 mg/kg dose): 42%
Median conc. (RSE %) ([1]; HCC70 xenograft tissue, 60 mg/kg): 0.43 (16) mg/L
Median conc. (RSE %) ([1]; MDA-MB-231 xenograft tissue, 60 mg/kg): 0.27 (18) mg/L
Median conc. (RSE %) ([1]; MDA-MB-436 xenograft tissue, 60 mg/kg): 0.32 (26) mg/L
Median conc. (RSE %) ([1]; TNBC xenograft tissue (all cell lines), 20 mg/kg, 3 h after last dose): 0.12 (31) mg/L
Median conc. (RSE %) ([1]; TNBC xenograft tissue (all cell lines), 60 mg/kg, 3 h after last dose, 60 mg/kg): 0.36 (12) mg/L
concentration at 3 h ([1]; oral, liver, 60 mg/kg, 3 h after last dose): 1770 ng/mL
concentration at 3 h ([1]; oral, plasma, veliparib 60 mg/kg three times daily, 3 h post dose): 860 ng/mL
concentration at 3 h ([1]; tumor (HCC70 xenograft), oral, HCC70 xenograft tissue, 20 mg/kg): 130 ng/mL
concentration at 3 h ([1]; tumor (HCC70 xenograft), oral, HCC70 xenograft tissue, 60 mg/kg): 430 ng/mL
concentration at 3 h ([1]; tumor (MDA-MB-231 xenograft), oral, MDA-MB-231 xenograft tissue, 20 mg/kg): 10 ng/mL
concentration at 3 h ([1]; tumor (MDA-MB-231 xenograft), oral, MDA-MB-231 xenograft tissue, 60 mg/kg): 270 ng/mL
concentration at 3 h ([1]; tumor (MDA-MB-436 xenograft), oral, MDA-MB-436 xenograft tissue, 20 mg/kg): 50 ng/mL
concentration at 3 h ([1]; tumor (MDA-MB-436 xenograft), oral, MDA-MB-436 xenograft tissue, 60 mg/kg): 320 ng/mL
concentration at 3 h ([1]; tumor (TNBC xenograft, oral), TNBC xenograft tissue (all cell lines), 60 mg/kg, 3 h after last dose): 360 ng/mL
Median conc. (RSE %) ([1]; liver, 20 mg/kg, 3 h after last dose): 0.47 (20) mg/L
Median conc. (RSE %) ([1]; liver, 60 mg/kg, 3 h after last dose, 60 mg/kg): 1.77 (14) mg/L
Median conc. (RSE %) ([1]; muscle, 20 mg/kg, 3 h after last dose): 0.12 (70) mg/L
Median conc. (RSE %) ([1]; muscle, 60 mg/kg, 3 h after last dose): 0.47 (47) mg/L
Median conc. (RSE %) ([1]; plasma, veliparib 20 mg/kg three times daily, 3 h post dose): 0.19 (10) mg/L
Median conc. (RSE %) ([1]; plasma, veliparib 60 mg/kg three times daily, 3 h post dose): 0.86 (11) mg/L
Ion intensity tumor/muscle (RSE %) ([2]; cellular tumors (ROI)): 1.01 (85%)
Ion intensity tumor/muscle (RSE %) ([2]; necrotic tumors (ROI)): 1.63 (70%)
Sensitivity in vitro [3]: insensitive
Protein binding capacity in human plasma [4]: 51%

From PMC5594551, “Heterogeneous drug penetrance of veliparib and carboplatin measured in triple negative breast tumors” (Breast Cancer Research : BCR, 2017)
